BindingDB's records for doi:10.1016/j.bioorg.2016.10.001 (Jamia Millia Islamia (A Central University), 2016)

Biological target: DNA topoisomerase 2-alpha (Homo sapiens, UniProt P11388)
Assay: Topoisomerase IIα Relaxation Assay
Details: pH 7.9
Procedure: Relaxation of negatively supercoiled plasmid DNA by human topoisomerase IIα was assayed in 20 µL of reaction buffer (10 mM Tris-HCl, pH 7.9, 150 mM NaCl, 0.1% BSA, 0.1 mM spermidine, 5% glycerol and ATP) containing 250 ng of supercoiledpHOT1 plasmid DNA and 1 unit of enzyme. After incubation at 37 °C for 30 min, the reactions were terminated and analysed by agarose gel electrophoresis. The ethidium bromide-stained gel was photographed over UV light for densitometry analysis.

Chain of DNA topoisomerase 2-alpha (P11388 whole entry): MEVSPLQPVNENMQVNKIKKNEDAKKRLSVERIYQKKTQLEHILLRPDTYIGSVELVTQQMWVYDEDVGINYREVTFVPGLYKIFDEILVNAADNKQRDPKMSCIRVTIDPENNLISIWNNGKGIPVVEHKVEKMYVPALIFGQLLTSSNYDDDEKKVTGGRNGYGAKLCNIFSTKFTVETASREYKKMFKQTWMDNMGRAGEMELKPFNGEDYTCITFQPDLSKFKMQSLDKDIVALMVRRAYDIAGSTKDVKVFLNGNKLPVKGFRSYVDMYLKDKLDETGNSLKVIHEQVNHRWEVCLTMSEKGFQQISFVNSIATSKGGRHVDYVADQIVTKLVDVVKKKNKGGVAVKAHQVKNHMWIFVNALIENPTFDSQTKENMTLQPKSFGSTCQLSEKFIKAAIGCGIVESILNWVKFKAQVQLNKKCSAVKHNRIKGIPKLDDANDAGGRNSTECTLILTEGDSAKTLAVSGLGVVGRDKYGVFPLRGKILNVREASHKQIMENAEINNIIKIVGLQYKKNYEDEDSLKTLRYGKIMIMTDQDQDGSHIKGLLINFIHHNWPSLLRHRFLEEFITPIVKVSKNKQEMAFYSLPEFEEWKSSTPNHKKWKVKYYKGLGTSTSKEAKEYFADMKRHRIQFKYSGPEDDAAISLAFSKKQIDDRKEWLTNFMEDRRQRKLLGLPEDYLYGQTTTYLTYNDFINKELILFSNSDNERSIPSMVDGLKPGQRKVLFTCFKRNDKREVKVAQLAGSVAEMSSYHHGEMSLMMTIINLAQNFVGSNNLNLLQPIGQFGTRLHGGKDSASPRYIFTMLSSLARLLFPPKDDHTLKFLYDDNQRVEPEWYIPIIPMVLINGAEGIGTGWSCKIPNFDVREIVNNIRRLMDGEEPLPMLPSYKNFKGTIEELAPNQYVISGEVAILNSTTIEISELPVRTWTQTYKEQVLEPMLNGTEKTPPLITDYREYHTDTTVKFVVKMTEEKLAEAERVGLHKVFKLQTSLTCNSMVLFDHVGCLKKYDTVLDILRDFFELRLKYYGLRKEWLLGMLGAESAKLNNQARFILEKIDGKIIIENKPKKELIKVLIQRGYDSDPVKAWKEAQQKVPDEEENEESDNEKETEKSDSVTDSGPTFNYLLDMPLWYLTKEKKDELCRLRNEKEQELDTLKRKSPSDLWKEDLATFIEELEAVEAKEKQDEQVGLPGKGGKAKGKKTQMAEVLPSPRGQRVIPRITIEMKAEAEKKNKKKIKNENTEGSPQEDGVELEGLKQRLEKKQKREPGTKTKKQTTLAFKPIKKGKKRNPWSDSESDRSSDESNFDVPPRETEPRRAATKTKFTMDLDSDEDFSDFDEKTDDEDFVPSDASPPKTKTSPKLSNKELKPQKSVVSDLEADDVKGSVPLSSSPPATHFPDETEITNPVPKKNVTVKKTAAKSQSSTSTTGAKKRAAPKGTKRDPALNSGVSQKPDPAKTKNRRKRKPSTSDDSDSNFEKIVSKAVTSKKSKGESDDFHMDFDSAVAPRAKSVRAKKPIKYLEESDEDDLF

IC50	SMILES
245 µM	NC(=S)N1N=C(c2cccnc2)CC1c1cn(-c2ccccc2)nc1-c1ccccc1 (centres undefined) [5-(1,3-Diphenyl-1H-pyrazol-4-yl)-3-(pyridin-3-yl)-4,5-dihydropyrazole-1-carbothioamide (6a)]
457 µM	NC(=S)N1N=C(c2cccnc2)CC1c1cn(-c2ccccc2)nc1-c1cccc(Br)c1 (centres undefined) [5-(3-(3-Bromophenyl)-1-phenyl-1H-pyrazol-4-yl)-3-(pyridin-3-yl)-4,5-dihydropyrazole-1-carbothioamide (6d)]
445 µM	NC(=S)N1N=C(c2cccnc2)CC1c1cn(-c2ccccc2)nc1-c1cccc([N+](=O)[O-])c1 (centres undefined) [5-(3-(3-Nitrophenyl)-1-phenyl-1H-pyrazol-4-yl)-3-(pyridin-3-yl)-4,5-dihydropyrazole-1-carbothioamide (6f)]
703 µM	NC(=S)N1N=C(c2cccnc2)CC1c1cn(-c2ccccc2)nc1-c1ccc(Br)cc1 (centres undefined) [5-(3-(4-Bromophenyl)-1-phenyl-1H-pyrazol-4-yl)-3-(pyridin-3-yl)-4,5-dihydropyrazole-1-carbothioamide (6e)]
406 µM	NC(=S)N1N=C(c2cccnc2)CC1c1cn(-c2ccccc2)nc1-c1ccc(Cl)cc1 (centres undefined) [5-(3-(4-Chlorophenyl)-1-phenyl-1H-pyrazol-4-yl)-3-(pyridin-3-yl)-4,5-dihydropyrazole-1-carbothioamide (6c)]
272 µM	NC(=S)N1N=C(c2cccnc2)CC1c1cn(-c2ccccc2)nc1-c1ccc(F)cc1 (centres undefined) [5-(3-(4-Fluorophenyl)-1-phenyl-1H-pyrazol-4-yl)-3-(pyridin-3-yl)-4,5-dihydropyrazole-1-carbothioamide (6b)]
395 µM	CCOC(=O)C1C(=O)C=C(c2cn(-c3ccccc3)nc2-c2ccc(C)cc2)CC1c1cccnc1 (centres undefined) [Ethyl 2-oxo-4-(1-phenyl-3-p-tolyl-1H-pyrazol-4-yl)-6-(pyridin-3-yl)cyclohex-3-enecarboxylate (5h)]
222 µM	CCOC(=O)C1C(=O)C=C(c2cn(-c3ccccc3)nc2-c2ccccc2)CC1c1cccnc1 (centres undefined) [Ethyl 4-(1,3-diphenyl-1H-Pyrazol-4-yl)-2-oxo-6-(pyridin-3-yl)cyclohex-3-enecarboxylate (5a)]
< 100 µM	CCOC(=O)C1C(=O)C=C(c2cn(-c3ccccc3)nc2-c2cccc(Br)c2)CC1c1cccnc1 (centres undefined) [Ethyl 4-(3-(3-bromophenyl)-1-phenyl-1H-pyrazol-4-yl)-2-oxo-6-(pyridin-3-yl)cyclohex-3-enecarboxylate (5d)]
< 100 µM	CCOC(=O)C1C(=O)C=C(c2cn(-c3ccccc3)nc2-c2cccc([N+](=O)[O-])c2)CC1c1cccnc1 (centres undefined) [Ethyl 4-(3-(3-nitrophenyl)-1-phenyl-1H-pyrazol-4-yl)-2-oxo-6-(pyridin-3-yl)cyclohex-3-enecarboxylate (5f)]
< 100 µM	CCOC(=O)C1C(=O)C=C(c2cn(-c3ccccc3)nc2-c2ccc(Cl)cc2)CC1c1cccnc1 (centres undefined) [Ethyl 4-(3-(4-chlorophenyl)-1-phenyl-1H-pyrazol-4-yl)-2-oxo-6-(pyridin-3-yl)cyclohex-3-enecarboxylate (5c)]
< 100 µM	CCOC(=O)C1C(=O)C=C(c2cn(-c3ccccc3)nc2-c2ccc(F)cc2)CC1c1cccnc1 (centres undefined) [Ethyl 4-(3-(4-fluorophenyl)-1-phenyl-1H-pyrazol-4-yl)-2-oxo-6-(pyridin-3-yl)cyclohex-3-enecarboxylate (5b)]
428 µM	CCOC(=O)C1C(=O)C=C(c2cn(-c3ccccc3)nc2-c2ccc(OC)cc2)CC1c1cccnc1 (centres undefined) [Ethyl 4-(3-(4-methoxyphenyl)-1-phenyl-1H-pyrazol-4-yl)-2-oxo-6-(pyridin-3-yl)cyclohex-3-enecarboxylate (5i)]
256 µM	CCOC(=O)C1C(=O)C=C(c2cn(-c3ccccc3)nc2-c2ccc([N+](=O)[O-])cc2)CC1c1cccnc1 (centres undefined) [Ethyl 4-(3-(4-nitrophenyl)-1-phenyl-1H-pyrazol-4-yl)-2-oxo-6-(pyridin-3-yl)cyclohex-3-enecarboxylate (5g)]
